Drawing on ChEMBL document CHEMBL5465560, “Selectivity Literature for EUbOPEN Chemogenomic Library” (2024), this text covers % of control and % of inhibition for five compounds.

The target in assay [1] is T1, Serine/threonine-protein kinase NLK (Homo sapiens) (UniProt Q9UBE8).
T1 sequence (whole entry): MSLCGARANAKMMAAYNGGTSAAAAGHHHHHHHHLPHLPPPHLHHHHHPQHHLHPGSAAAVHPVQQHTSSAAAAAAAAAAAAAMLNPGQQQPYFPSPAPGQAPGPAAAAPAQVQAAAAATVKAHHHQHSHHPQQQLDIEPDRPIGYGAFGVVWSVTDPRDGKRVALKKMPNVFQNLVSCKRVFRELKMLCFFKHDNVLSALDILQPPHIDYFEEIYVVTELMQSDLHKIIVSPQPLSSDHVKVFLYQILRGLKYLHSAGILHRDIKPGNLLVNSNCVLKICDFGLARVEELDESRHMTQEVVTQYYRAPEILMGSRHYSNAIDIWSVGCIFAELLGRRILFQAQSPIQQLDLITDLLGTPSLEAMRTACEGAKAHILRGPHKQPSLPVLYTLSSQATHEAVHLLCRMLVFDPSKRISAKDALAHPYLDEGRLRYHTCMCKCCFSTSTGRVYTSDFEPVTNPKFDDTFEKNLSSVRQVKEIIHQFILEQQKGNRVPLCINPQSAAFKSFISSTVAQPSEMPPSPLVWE
The assay can be described thus: Selectivity interaction (KinomeScan (DiscoverX)) EUB0000607a NLK. To be noted: at 10 µM.

Assay [2] concerns the target T2, Serine/threonine-protein kinase 17A (Homo sapiens) (UniProt Q9UEE5).
T2 sequence (whole entry): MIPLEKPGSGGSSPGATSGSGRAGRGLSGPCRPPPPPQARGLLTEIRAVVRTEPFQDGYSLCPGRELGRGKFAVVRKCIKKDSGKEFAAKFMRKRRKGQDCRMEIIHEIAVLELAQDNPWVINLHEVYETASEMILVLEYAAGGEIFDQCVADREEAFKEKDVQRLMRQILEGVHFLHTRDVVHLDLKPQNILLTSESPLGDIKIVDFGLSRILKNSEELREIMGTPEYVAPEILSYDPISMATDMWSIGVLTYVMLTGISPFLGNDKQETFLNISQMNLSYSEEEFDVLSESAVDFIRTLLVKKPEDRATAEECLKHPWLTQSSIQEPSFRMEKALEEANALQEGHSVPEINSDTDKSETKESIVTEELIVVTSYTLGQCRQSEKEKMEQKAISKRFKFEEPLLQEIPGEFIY
The assay is described as follows: Selectivity interaction (KinomeScan (DiscoverX)) EUB0000655a STK17A. Particulars: at 10 µM.

Assay [3] concerns the target Serine/threonine-protein kinase mTOR (Homo sapiens, UniProt P42345). The assay can be described thus: Selectivity interaction (Kinase panel (Invitrogen)) EUB0000639a MTOR. To be noted: at 200 nM.
For assay [4], the target named is T3, MAP/microtubule affinity-regulating kinase 4 (Homo sapiens) (UniProt Q96L34).
T3 sequence (whole entry): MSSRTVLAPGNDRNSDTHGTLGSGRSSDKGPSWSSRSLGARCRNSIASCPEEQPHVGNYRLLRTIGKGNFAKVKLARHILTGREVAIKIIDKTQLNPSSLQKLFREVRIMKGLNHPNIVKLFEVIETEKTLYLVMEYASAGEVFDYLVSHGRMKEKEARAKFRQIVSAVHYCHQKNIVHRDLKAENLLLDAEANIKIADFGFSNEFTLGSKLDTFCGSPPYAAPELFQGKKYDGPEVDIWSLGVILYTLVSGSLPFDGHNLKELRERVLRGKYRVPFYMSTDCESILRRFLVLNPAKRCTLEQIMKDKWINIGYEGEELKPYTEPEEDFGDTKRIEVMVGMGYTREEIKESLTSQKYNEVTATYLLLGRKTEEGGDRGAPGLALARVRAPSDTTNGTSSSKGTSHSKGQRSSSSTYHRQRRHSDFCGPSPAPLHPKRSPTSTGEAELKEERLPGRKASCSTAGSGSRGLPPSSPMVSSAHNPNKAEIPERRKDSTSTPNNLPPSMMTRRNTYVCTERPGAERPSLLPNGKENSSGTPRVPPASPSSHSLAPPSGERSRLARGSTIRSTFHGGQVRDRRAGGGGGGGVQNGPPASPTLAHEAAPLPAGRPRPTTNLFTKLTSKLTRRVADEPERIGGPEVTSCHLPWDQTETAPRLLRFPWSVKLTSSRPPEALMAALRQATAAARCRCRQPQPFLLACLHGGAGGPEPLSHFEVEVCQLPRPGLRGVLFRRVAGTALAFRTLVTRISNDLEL
The assay can be described thus: Selectivity interaction (ActivX KiNativ screen (kinase selectivity in THP-1 cell lysates)) EUB0000639a MARK4. The format is subcellular. To be noted: lysate, at 0.2 µM.

The target in assay [5] is Serine/threonine-protein kinase SIK1 (Homo sapiens) (UniProt P57059). To be noted: at 10 µM.
Chain of Serine/threonine-protein kinase SIK1 (Homo sapiens) (P57059 whole entry): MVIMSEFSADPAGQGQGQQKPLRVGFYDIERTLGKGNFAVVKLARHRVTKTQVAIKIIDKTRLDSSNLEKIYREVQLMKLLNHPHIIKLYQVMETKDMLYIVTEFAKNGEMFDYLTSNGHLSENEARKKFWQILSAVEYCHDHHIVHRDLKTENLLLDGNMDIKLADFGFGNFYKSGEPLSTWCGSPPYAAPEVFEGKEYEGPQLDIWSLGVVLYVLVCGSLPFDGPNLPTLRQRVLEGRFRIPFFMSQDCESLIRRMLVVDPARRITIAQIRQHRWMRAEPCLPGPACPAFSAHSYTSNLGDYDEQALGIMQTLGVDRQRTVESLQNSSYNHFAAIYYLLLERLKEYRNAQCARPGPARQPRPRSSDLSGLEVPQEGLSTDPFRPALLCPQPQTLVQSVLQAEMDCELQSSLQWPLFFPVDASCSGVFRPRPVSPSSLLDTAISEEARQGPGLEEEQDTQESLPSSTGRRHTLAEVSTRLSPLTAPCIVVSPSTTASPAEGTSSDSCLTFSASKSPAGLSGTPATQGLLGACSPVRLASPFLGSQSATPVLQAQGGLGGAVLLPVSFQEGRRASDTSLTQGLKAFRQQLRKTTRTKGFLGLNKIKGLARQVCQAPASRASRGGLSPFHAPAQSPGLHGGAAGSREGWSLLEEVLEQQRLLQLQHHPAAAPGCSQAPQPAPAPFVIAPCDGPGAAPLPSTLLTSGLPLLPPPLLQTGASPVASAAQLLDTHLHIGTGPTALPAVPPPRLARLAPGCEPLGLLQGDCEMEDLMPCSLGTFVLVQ
Assay [6] has as its target Serine/threonine-protein kinase PRP4 homolog (Homo sapiens) (UniProt Q13523). The assay is described as follows: Selectivity interaction (KinomeScan (DiscoverX)) EUB0000045b PRPF4B.
For assay [7], the target named is Tyrosine-protein kinase BTK (Homo sapiens, UniProt Q06187). To be noted: at 10 µM.
Chain of Tyrosine-protein kinase BTK (Q06187 whole entry): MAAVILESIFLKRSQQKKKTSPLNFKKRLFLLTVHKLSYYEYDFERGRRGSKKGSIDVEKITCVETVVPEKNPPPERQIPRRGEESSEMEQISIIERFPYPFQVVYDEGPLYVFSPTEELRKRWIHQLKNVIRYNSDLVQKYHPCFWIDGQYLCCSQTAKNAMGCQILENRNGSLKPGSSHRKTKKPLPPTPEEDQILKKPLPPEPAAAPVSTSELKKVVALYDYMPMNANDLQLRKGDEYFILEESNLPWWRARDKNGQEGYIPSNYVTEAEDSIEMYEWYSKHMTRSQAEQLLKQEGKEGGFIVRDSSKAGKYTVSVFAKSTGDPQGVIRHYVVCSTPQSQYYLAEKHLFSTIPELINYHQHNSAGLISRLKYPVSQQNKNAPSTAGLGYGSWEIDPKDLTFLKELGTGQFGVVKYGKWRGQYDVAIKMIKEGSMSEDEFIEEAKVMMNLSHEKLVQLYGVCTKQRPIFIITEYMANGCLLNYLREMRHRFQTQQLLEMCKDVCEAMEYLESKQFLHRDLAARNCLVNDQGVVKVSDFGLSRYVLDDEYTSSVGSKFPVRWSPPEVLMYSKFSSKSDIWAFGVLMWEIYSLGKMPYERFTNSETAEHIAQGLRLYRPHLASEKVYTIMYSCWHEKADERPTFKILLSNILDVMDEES

Chain of Serine/threonine-protein kinase PRP4 homolog (Homo sapiens) (Q13523 whole entry): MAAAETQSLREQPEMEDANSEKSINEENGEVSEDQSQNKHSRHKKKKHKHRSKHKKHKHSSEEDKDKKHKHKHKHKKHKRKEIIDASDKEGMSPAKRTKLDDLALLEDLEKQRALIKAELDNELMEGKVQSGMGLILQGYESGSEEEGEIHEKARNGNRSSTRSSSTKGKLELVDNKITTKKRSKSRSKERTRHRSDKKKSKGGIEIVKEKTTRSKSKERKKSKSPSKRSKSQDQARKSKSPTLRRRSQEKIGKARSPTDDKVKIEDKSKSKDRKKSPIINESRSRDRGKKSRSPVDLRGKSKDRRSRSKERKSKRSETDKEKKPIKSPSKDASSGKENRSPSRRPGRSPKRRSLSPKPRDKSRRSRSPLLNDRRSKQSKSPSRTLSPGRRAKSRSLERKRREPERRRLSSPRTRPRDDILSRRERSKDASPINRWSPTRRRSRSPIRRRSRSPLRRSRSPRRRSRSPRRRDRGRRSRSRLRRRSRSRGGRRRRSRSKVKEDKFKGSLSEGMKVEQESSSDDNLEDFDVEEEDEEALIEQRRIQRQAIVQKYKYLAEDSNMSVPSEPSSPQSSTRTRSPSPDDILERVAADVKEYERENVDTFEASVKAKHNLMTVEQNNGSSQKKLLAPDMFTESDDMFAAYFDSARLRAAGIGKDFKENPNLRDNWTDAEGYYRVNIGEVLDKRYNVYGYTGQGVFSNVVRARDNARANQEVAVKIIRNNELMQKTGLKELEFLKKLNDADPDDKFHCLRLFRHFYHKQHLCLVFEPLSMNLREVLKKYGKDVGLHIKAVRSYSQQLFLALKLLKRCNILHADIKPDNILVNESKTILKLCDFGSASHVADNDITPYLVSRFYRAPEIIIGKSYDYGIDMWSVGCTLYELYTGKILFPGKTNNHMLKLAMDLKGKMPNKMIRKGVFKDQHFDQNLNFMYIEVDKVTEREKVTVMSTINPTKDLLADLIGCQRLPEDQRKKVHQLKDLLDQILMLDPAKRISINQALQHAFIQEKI

`CNC(=O)Nc1ccc(-c2nc(N3CC4CCC(C3)O4)c3cnn(C4CCC5(CC4)OCCO5)c3n2)cc1`: the % of control in assay [1] worked out at 85%.

With `CN(C)CCOc1ccc(-c2nc(-c3ccncc3)c(-c3ccc4c(c3)CC/C4=N\O)[nH]2)cc1`, the % of control in assay [2] was found to be 69%.

Consider `CC[C@@H]1[C@H](F)C(=O)N[C@@H]1COc1nccc2cc(C(N)=O)c(OC)cc12` [ZIMLOVISERTIB], for which the % of inhibition in assay [3] is 3.37%; in assay [4], 13.2%.

In the case of `CCN(CC)CCCCNc1ncc2cc(-c3cc(OC)cc(OC)c3)c(NC(=O)NC(C)(C)C)nc2n1`, the % of control in assay [5] was found to be 100%.

Regarding `C=CC(=O)Nc1cc(-n2c(=O)ccc3cnc4ccc(-c5ccc(NS(C)(=O)=O)cc5)cc4c32)ccc1C`, the figures for the % of control in assay [6] (at 1 µM), in assay [6] (at 10 µM) and in assay [7] were 95%, 89% and 0.7%, respectively.
